# Assay results published in ChEMBL document CHEMBL1201862, “PubChem BioAssay data set” (2004).
#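 1) Cells in 96-well plates. 2) Compound, 48 h, 5 concentrations. 3) Linear interpolation between surrounding doses. 4) Unreached endpoint = highest concentration. The concentration for 50% growth inhibition is given as GI50.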 Activity calls are given as the source filed them. Rule as the data show it: active = GI50 up to about 1.1 µM and inactive = higher.
# Experiments:
# Assay in all cases: growth of human tumour cells (NCI), 48 h
# 786-0 = system: 786-0
# A498 = system: A498
# A549 = system: A549
# ACHN = system: ACHN
# BT-549 = system: BT-549
# CAKI-1 = system: CAKI-1
# CCRF-CEM = system: CCRF-CEM
# COLO 205 = system: COLO 205
# DU-145 = system: DU-145
# EKVX = system: EKVX
# HCT-116 = system: HCT-116
# HCT-15 = system: HCT-15
# HL-60 = system: HL-60
# HOP-62 = system: HOP-62
# HOP-92 = system: HOP-92
# HT-29 = system: HT-29
# Hs-578T = system: Hs-578T
# IGROV-1 = system: IGROV-1
# K562 = system: K562
# KM12 = system: KM12
# LOX IMVI = system: LOX IMVI
# M14 = system: M14
# MCF7 = system: MCF7
# MDA-MB-231 = system: MDA-MB-231
# MDA-MB-435 = system: MDA-MB-435
# MDA-N = system: MDA-N
# MOLT-4 = system: MOLT-4
# Malme-3M = system: Malme-3M
# NCI-H226 = system: NCI-H226
# NCI-H23 = system: NCI-H23
# NCI-H460 = system: NCI-H460
# NCI-H522 = system: NCI-H522
# NCI/ADR-RES = system: NCI/ADR-RES
# OVCAR-3 = system: OVCAR-3
# OVCAR-4 = system: OVCAR-4
# OVCAR-5 = system: OVCAR-5
# OVCAR-8 = system: OVCAR-8
# PC-3 = system: PC-3
# RPMI-8226 = system: RPMI-8226
# RXF 393 = system: RXF 393
# SF-268 = system: SF-268
# SF-295 = system: SF-295
# SF-539 = system: SF-539
# SK-MEL-28 = system: SK-MEL-28
# SK-MEL-2 = system: SK-MEL-2
# SK-MEL-5 = system: SK-MEL-5
# SK-OV-3 = system: SK-OV-3
# SN12C = system: SN12C
# SNB-19 = system: SNB-19
# SNB-75 = system: SNB-75
# SR = system: SR
# SW-620 = system: SW-620
# T47D = system: T47D
# TK-10 = system: TK-10
# U-251 = system: U-251
# UACC-257 = system: UACC-257
# UACC-62 = system: UACC-62
# HCC 2998 = system: HCC 2998
# UO-31 = system: UO-31
smiles,measurement,setting,value
CC(C)C(=O)CP(=O)(O)O,GI50,786-0,> 100 µM (inactive)
same,GI50,A498,> 100 µM (inactive)
same,GI50,A549,> 100 µM (inactive)
same,GI50,ACHN,> 100 µM (inactive)
same,GI50,BT-549,> 100 µM (inactive)
same,GI50,CAKI-1,> 100 µM (inactive)
same,GI50,CCRF-CEM,> 100 µM (inactive)
same,GI50,COLO 205,> 100 µM (inactive)
same,GI50,DU-145,> 100 µM (inactive)
same,GI50,EKVX,23.4 µM (inactive)
same,GI50,HCT-116,> 100 µM (inactive)
same,GI50,HCT-15,> 100 µM
same,GI50,HL-60,> 100 µM (inactive)
same,GI50,HOP-62,> 100 µM (inactive)
same,GI50,HOP-92,> 100 µM (inactive)
same,GI50,HT-29,> 100 µM (inactive)
same,GI50,Hs-578T,> 100 µM (inactive)
same,GI50,IGROV-1,> 100 µM (inactive)
same,GI50,K562,> 100 µM (inactive)
same,GI50,KM12,> 100 µM (inactive)
same,GI50,LOX IMVI,> 100 µM (inactive)
same,GI50,M14,> 100 µM (inactive)
same,GI50,MCF7,> 100 µM (inactive)
same,GI50,MDA-MB-231,> 100 µM (inactive)
same,GI50,MDA-MB-435,> 100 µM (inactive)
same,GI50,MDA-N,> 100 µM (inactive)
same,GI50,MOLT-4,> 100 µM (inactive)
same,GI50,Malme-3M,> 100 µM (inactive)
same,GI50,NCI-H226,> 100 µM (inactive)
same,GI50,NCI-H23,> 100 µM (inactive)
same,GI50,NCI-H460,> 100 µM (inactive)
same,GI50,NCI-H522,> 100 µM (inactive)
same,GI50,NCI/ADR-RES,> 100 µM (inactive)
same,GI50,OVCAR-3,> 100 µM (inactive)
same,GI50,OVCAR-4,> 100 µM (inactive)
same,GI50,OVCAR-5,> 100 µM (inactive)
same,GI50,OVCAR-8,> 100 µM (inactive)
same,GI50,PC-3,> 100 µM (inactive)
same,GI50,RPMI-8226,> 100 µM (inactive)
same,GI50,RXF 393,> 100 µM (inactive)
same,GI50,SF-268,> 100 µM (inactive)
same,GI50,SF-295,> 100 µM (inactive)
same,GI50,SF-539,> 100 µM (inactive)
same,GI50,SK-MEL-28,> 100 µM (inactive)
same,GI50,SK-MEL-2,> 100 µM (inactive)
same,GI50,SK-MEL-5,> 100 µM (inactive)
same,GI50,SK-OV-3,> 100 µM (inactive)
same,GI50,SN12C,> 100 µM (inactive)
same,GI50,SNB-19,> 100 µM (inactive)
same,GI50,SNB-75,> 100 µM (inactive)
same,GI50,SR,> 100 µM (inactive)
same,GI50,SW-620,> 100 µM (inactive)
same,GI50,T47D,> 100 µM (inactive)
same,GI50,TK-10,> 100 µM (inactive)
same,GI50,U-251,> 100 µM (inactive)
same,GI50,UACC-257,> 100 µM (inactive)
same,GI50,UACC-62,> 100 µM (inactive)
O=C(/C=C1\Nc2ccccc2N\C1=C/C(=O)c1ccc(F)cc1)c1ccc(F)cc1,GI50,786-0,61.4 µM (inactive)
same,GI50,A498,> 100 µM (inactive)
same,GI50,A549,> 100 µM (inactive)
same,GI50,ACHN,> 100 µM (inactive)
same,GI50,BT-549,> 100 µM (inactive)
same,GI50,CAKI-1,> 100 µM (inactive)
same,GI50,CCRF-CEM,25.5 µM (inactive)
same,GI50,COLO 205,> 100 µM (inactive)
same,GI50,DU-145,> 100 µM (inactive)
same,GI50,EKVX,> 100 µM (inactive)
same,GI50,HCC 2998,63.2 µM (inactive)
same,GI50,HCT-116,> 100 µM (inactive)
same,GI50,HCT-15,> 100 µM
same,GI50,HL-60,46.5 µM (inactive)
same,GI50,HOP-62,61 µM (inactive)
same,GI50,HOP-92,> 100 µM (inactive)
same,GI50,HT-29,> 100 µM (inactive)
same,GI50,Hs-578T,> 100 µM (inactive)
same,GI50,IGROV-1,> 100 µM (inactive)
same,GI50,K562,> 100 µM (inactive)
same,GI50,KM12,> 100 µM (inactive)
same,GI50,LOX IMVI,> 100 µM (inactive)
same,GI50,M14,> 100 µM (inactive)
same,GI50,MCF7,15.1 µM (inactive)
same,GI50,MDA-MB-231,> 100 µM (inactive)
same,GI50,MDA-MB-435,> 100 µM (inactive)
same,GI50,MDA-N,> 100 µM (inactive)
same,GI50,MOLT-4,> 100 µM (inactive)
same,GI50,Malme-3M,> 100 µM (inactive)
same,GI50,NCI-H226,> 100 µM (inactive)
same,GI50,NCI-H23,> 100 µM (inactive)
same,GI50,NCI-H460,53.7 µM (inactive)
same,GI50,NCI-H522,> 100 µM (inactive)
same,GI50,NCI/ADR-RES,> 100 µM (inactive)
same,GI50,OVCAR-3,48.2 µM (inactive)
same,GI50,OVCAR-4,> 100 µM (inactive)
same,GI50,OVCAR-5,> 100 µM (inactive)
same,GI50,OVCAR-8,> 100 µM (inactive)
same,GI50,PC-3,> 100 µM (inactive)
same,GI50,RPMI-8226,51.4 µM (inactive)
same,GI50,RXF 393,> 100 µM (inactive)
same,GI50,SF-268,> 100 µM (inactive)
same,GI50,SF-539,> 100 µM (inactive)
same,GI50,SK-MEL-28,> 100 µM (inactive)
same,GI50,SK-MEL-2,> 100 µM (inactive)
same,GI50,SK-MEL-5,> 100 µM (inactive)
same,GI50,SN12C,> 100 µM (inactive)
same,GI50,SNB-19,> 100 µM (inactive)
same,GI50,SNB-75,> 100 µM (inactive)
same,GI50,SR,54.3 µM (inactive)
same,GI50,SW-620,> 100 µM (inactive)
same,GI50,T47D,63 µM (inactive)
same,GI50,TK-10,> 100 µM (inactive)
same,GI50,U-251,73.6 µM (inactive)
same,GI50,UACC-257,> 100 µM (inactive)
same,GI50,UACC-62,> 100 µM (inactive)
same,GI50,UO-31,> 100 µM (inactive)
O=c1cc(CO)oc(C(O)c2ccccc2)c1O (stereo not given),GI50,786-0,> 100 µM (inactive)
same,GI50,A498,> 100 µM (inactive)
same,GI50,A549,> 100 µM (inactive)
same,GI50,ACHN,> 100 µM (inactive)
same,GI50,BT-549,> 100 µM (inactive)
same,GI50,CAKI-1,> 100 µM (inactive)
same,GI50,COLO 205,> 100 µM (inactive)
same,GI50,DU-145,> 100 µM (inactive)
same,GI50,HCC 2998,> 100 µM (inactive)
same,GI50,HCT-116,> 100 µM (inactive)
same,GI50,HCT-15,> 100 µM
same,GI50,HL-60,> 100 µM (inactive)
same,GI50,HOP-62,> 100 µM (inactive)
same,GI50,HOP-92,> 100 µM (inactive)
same,GI50,HT-29,> 100 µM (inactive)
same,GI50,Hs-578T,> 100 µM (inactive)
same,GI50,IGROV-1,> 100 µM (inactive)
same,GI50,KM12,> 100 µM (inactive)
same,GI50,LOX IMVI,> 100 µM (inactive)
same,GI50,M14,> 100 µM (inactive)
same,GI50,MCF7,> 100 µM (inactive)
same,GI50,MDA-MB-231,> 100 µM (inactive)
same,GI50,MDA-MB-435,> 100 µM (inactive)
same,GI50,MDA-N,> 100 µM (inactive)
same,GI50,MOLT-4,> 100 µM (inactive)
same,GI50,Malme-3M,> 100 µM (inactive)
same,GI50,NCI-H226,> 100 µM (inactive)
same,GI50,NCI-H23,> 100 µM (inactive)
same,GI50,NCI-H460,> 100 µM (inactive)
same,GI50,NCI-H522,> 100 µM (inactive)
same,GI50,NCI/ADR-RES,> 100 µM (inactive)
same,GI50,OVCAR-3,> 100 µM (inactive)
same,GI50,OVCAR-4,> 100 µM (inactive)
same,GI50,OVCAR-5,> 100 µM (inactive)
same,GI50,OVCAR-8,> 100 µM (inactive)
same,GI50,PC-3,> 100 µM (inactive)
same,GI50,RPMI-8226,> 100 µM (inactive)
same,GI50,RXF 393,> 100 µM (inactive)
same,GI50,SF-268,> 100 µM (inactive)
same,GI50,SF-295,> 100 µM (inactive)
same,GI50,SF-539,> 100 µM (inactive)
same,GI50,SK-MEL-28,> 100 µM (inactive)
same,GI50,SK-MEL-2,> 100 µM (inactive)
same,GI50,SK-MEL-5,> 100 µM (inactive)
same,GI50,SK-OV-3,> 100 µM (inactive)
same,GI50,SN12C,> 100 µM (inactive)
same,GI50,SNB-19,> 100 µM (inactive)
same,GI50,SNB-75,> 100 µM (inactive)
same,GI50,SR,> 100 µM (inactive)
same,GI50,SW-620,> 100 µM (inactive)
same,GI50,T47D,> 100 µM (inactive)
same,GI50,TK-10,> 100 µM (inactive)
same,GI50,U-251,> 100 µM (inactive)
same,GI50,UACC-257,> 100 µM (inactive)
same,GI50,UACC-62,> 100 µM (inactive)
same,GI50,UO-31,> 100 µM (inactive)
